Test results from patent US20080200563A1, “Use of Compounds Containing Thiol Groups as Efflux Pump Inhibitors” (ThioMatrix Forschungs- und Beratungs- GmbH, priority 2004, published 2008).

Target: T1, efflux pump P-glycoprotein (Cavia porcellus, UniProt H0VLE6)
T1 construct: The small intestine of guinea pigs was immediately removed after sacrificing animals, cut lengthwise and rinsed; from tissue; host or cells: guinea pig small intestinal mucosa mounted in Ussing chambers
Experiment: Permeation studies with rhodamine 123 across guinea pig small intestinal mucosa in Ussing chambers (efflux pump inhibition)
Format: in vitro ADME
Conditions: 0.5% (m/v)
Experimental: The small intestine of guinea pigs was immediately removed after sacrificing animals, cut lengthwise and rinsed with sterile 0.9% sodium chloride solution. Thereafter it was mounted in Ussing chambers. The incubation medium was a 50 mM Bis-Tris (bis[2-hydroxyethyl]imino-tris[hydroxymethyl]methane) pH 6.0 buffer containing 250 mM NaCl, 2.6 mM MgSO4, 10 mM KCl, 40 mM glucose and 50 mM NaHCO3. […] J Pharm Sei. […] At predetermined time points samples were withdrawn from the acceptor chamber—facing to the basolateral site of the mucosa and replaced by fresh incubation medium. […] In addition all permeation studies described above were also performed with the mucosa being mounted in the opposite direction, so that the donor compartment is facing the basolateral site of the mucosa. In parallel, the same experiments were performed with the only difference that the donor- and acceptor compartment contained additionally glutathione in a concentration of 0.5%.
In order to compare the inhibitory effect of glutathione and/or polythiol-compounds with well-known inhibitors on efflux pumps of the gastrointestinal mucosa, they were tested in parallel.

T1 sequence (H0VLE6 1-1243): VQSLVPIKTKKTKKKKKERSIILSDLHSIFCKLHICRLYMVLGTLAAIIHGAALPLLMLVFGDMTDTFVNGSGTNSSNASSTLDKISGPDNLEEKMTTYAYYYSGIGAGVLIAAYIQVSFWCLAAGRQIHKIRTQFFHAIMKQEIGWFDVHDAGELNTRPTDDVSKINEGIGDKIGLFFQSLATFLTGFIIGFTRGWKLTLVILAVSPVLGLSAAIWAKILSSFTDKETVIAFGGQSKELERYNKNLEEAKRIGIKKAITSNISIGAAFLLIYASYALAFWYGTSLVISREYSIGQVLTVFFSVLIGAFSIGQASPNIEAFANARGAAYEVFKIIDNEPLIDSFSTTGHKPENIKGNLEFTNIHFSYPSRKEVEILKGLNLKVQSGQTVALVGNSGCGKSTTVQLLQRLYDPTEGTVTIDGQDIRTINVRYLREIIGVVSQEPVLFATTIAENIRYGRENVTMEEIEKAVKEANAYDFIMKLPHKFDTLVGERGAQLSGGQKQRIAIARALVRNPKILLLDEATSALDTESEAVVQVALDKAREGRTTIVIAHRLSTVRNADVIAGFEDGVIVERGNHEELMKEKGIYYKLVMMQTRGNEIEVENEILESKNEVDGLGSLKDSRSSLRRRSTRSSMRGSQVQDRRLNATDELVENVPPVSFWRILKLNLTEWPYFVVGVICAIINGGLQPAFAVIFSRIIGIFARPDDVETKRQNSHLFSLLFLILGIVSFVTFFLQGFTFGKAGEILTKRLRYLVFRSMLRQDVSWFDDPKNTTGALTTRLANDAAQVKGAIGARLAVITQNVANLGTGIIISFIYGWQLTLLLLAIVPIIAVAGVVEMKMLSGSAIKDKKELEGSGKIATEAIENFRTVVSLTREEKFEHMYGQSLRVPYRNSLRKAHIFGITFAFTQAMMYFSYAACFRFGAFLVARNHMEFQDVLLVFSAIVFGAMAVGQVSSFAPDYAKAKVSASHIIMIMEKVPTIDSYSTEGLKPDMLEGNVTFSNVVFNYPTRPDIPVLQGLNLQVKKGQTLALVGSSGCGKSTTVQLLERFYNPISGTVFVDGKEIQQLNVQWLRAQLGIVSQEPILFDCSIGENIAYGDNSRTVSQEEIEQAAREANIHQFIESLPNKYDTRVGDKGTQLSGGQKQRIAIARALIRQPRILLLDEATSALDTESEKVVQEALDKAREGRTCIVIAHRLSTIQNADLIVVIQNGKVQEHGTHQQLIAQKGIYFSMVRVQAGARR

effect on rhodamine permeation at 4° C. compared with 37° C. (4° C.): dramatically lower effect | permeation of rhodamine in the absorptive direction in the presence of the compound (37° C., apical to basolateral): significantly improved | permeation of rhodamine in the secretory direction in the presence of the compound (37° C., basolateral to apical): significantly reduced | efflux pump inhibitory effect (37° C., p<0.05, rhodamine 123): statistically significant
SMILES: N[C@@H](CCC(=O)N[C@@H](CS)C(=O)NCC(=O)O)C(=O)O [Glutathione, glutathione]
